Structures can show the parent of a compound that is named as a salt.
Each molecule was assayed against human P2X7 (Homo sapiens (Human), UniProt Q99572) (assay: P2X7 antagonism in human PBMCs (IL-1β release after LPS + Bz-ATP, ELISA)). Conditions: 10 μM test compound, human PBMCs, LPS + Bz-ATP.
Sequence of human P2X7 (Q99572 whole entry): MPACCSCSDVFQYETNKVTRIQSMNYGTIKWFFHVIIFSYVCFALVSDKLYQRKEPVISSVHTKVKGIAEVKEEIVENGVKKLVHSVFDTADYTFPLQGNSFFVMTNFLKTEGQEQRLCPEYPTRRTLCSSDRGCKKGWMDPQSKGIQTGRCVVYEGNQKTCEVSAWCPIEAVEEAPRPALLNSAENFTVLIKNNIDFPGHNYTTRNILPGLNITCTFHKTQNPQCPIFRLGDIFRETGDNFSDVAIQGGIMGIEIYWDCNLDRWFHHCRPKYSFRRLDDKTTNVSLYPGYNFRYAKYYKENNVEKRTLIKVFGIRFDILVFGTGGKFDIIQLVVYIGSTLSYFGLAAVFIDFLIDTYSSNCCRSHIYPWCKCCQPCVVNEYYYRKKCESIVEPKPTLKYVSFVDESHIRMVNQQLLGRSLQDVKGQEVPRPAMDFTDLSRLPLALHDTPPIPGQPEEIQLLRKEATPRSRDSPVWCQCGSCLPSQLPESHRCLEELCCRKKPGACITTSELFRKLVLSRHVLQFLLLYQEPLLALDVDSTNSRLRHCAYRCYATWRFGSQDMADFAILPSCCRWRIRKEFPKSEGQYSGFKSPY
Format: cell-based
For `CC(C)n1ccc(-n2nnc3c2C[C@H](C)N(C(=O)c2ccnc(C(F)(F)F)c2F)C3)n1` [Example 418, (S)-(3-fluoro-2-(trifluoromethyl)pyridin-4-yl)(1-(1-isopropyl-1H-pyrazol-3-yl)-6-methyl-6,7-dihydro-1H-[1,2,3]triazolo[4,5-c]pyridin-5(4H)-yl)methanone], the “PBMC 10 μM (% control)” value was 97.6 % control.

Same assay, conditions: human PBMCs, test compound 1 μM
`Cn1nc(-c2ccccc2)c2c1CN(C(=O)c1cccc(Cl)c1Cl)CC2` [Example 103, 6-[(2,3-Dichlorophenyl)carbonyl]-1-methyl-3-phenyl-4,5,6,7-tetrahydro-1H-pyrazolo[3,4-c]pyridine] was tested, and the “PBMC 1 μM (% control)” value was 56.0 % control.
For `O=C(c1cccc(C(F)(F)F)c1Cl)N1CCc2c(-c3ccccn3)n[nH]c2C1` [Example 93, 6-{[2-Chloro-3-(trifluoromethyl)phenyl]carbonyl}-3-pyridin-2-yl-4,5,6,7-tetrahydro-2H-pyrazolo[3,4-c]pyridine-TFA salt], the “PBMC 1 μM (% control)” value was 9.0 % control.

Same assay, conditions: human PBMCs, test compound 10 μM
`CC1c2nnn(-c3ncccn3)c2CCN1C(=O)c1ccc(Cl)cc1F` (centres unmarked) [Example 275, (4-chloro-2-fluorophenyl)(4-methyl-1-(pyrimidin-2-yl)-6,7-dihydro-1H-[1,2,3]triazolo[4,5-c]pyridin-5(4H)-yl)methanone] was tested, and the “PBMC 10 μM (% control)” value was −8.3 % control.
For `Cc1cccc(-n2nnc3c2CCN(C(=O)c2cccc(C(F)(F)F)c2Cl)C3C)n1` (centres unmarked) [Example 302, (2-chloro-3-(trifluoromethyl)phenyl)(4-methyl-1-(6-methylpyridin-2-yl)-6,7-dihydro-1H-[1,2,3]triazolo[4,5-c]pyridin-5(4H)-yl)methanone], the “PBMC 10 μM (% control)” value was −2.8 % control.
With `C[C@@H]1Cc2c(nnn2-c2ccccn2)CN1C(=O)c1cccc(C(F)(F)F)c1Cl` (single isomer, unassigned) [Example 119, 5-{[2-Chloro-3-(trifluoromethyl)phenyl]carbonyl}-(R*)-6-methyl-1-pyridin-2-yl-4,5,6,7-tetrahydro-1H-[1,2,3]triazolo[4,5-c]pyridine] the “PBMC 10 μM (% control)” value was 20.0 % control.
In the case of `Cc1ccnc(-n2nnc3c2CCN(C(=O)c2cccc(C(F)(F)F)c2Cl)C3C)n1` (centres unmarked) [Example 252, (2-Chloro-3-(trifluoromethyl)phenyl)(4-methyl-1-(4-methylpyrimidin-2-yl)-6,7-dihydro-1H-[1,2,3]triazolo[4,5-c]pyridin-5(4H)-yl)methanone], the “PBMC 10 μM (% control)” value is reported as −0.8 % control.
In the case of `C[C@H]1c2ncn(-c3ccccn3)c2CCN1C(=O)c1cccc(Cl)c1Cl` (single isomer, unassigned) [Example 191, (S*)-(2,3-Dichlorophenyl)(4-methyl-1-(pyridin-2-yl)-6,7-dihydro-1H-imidazo[4,5-c]pyridin-5(4H)-yl)methanone], the “PBMC 10 μM (% control)” value is reported as 5.2 % control.
For `CC1Cc2c(nnn2-c2ncc(F)cn2)CN1C(=O)c1ccc(F)c(Cl)c1Cl` (centres unmarked) [Example 213, 5-[(2,3-Dichloro-4-fluorophenyl)carbonyl]-1-(5-fluoropyrimidin-2-yl)-6-methyl-4,5,6,7-tetrahydro-1H-[1,2,3]triazolo[4,5-c]pyridine], the “PBMC 10 μM (% control)” value was 0.3 % control.
In the case of `C[C@H]1c2nnn(-c3ccn(C)n3)c2CCN1C(=O)c1cccc(C(F)(F)F)c1Cl` (single isomer, unassigned) [Example 170, (S*)-(2-Chloro-3-(trifluoromethyl)phenyl)(4-methyl-1-(1-methyl-1H-pyrazol-3-yl)-6,7-dihydro-1H-[1,2,3]triazolo[4,5-c]pyridin-5(4H)-yl)methanone], the “PBMC 10 μM (% control)” value is reported as −5.7 % control.
With `Cc1cc(C)nc(-n2nnc3c2CCN(C(=O)c2cccc(C(F)(F)F)c2Cl)C3C)c1` (centres unmarked) [Example 300, (2-chloro-3-(trifluoromethyl)phenyl)(1-(4,6-dimethylpyridin-2-yl)-4-methyl-6,7-dihydro-1H-[1,2,3]triazolo[4,5-c]pyridin-5(4H)-yl)methanone] the “PBMC 10 μM (% control)” value was −1.8 % control.
